Assay results published in patent publication US4634704A, “Anti-allergic five membered heterocyclic ring containing N-(bicyclic heterocycyl)-4-piperidinamines” (Janssen Pharmaceutica, N.V., priority 1984, dated 1987).
Structures can show the parent of a compound that is named as a salt. Where two headings read alike, the source gives them in different places.

Key:
[1] = system: effects of serotonin in the gastric lesion test; conditions: rats injected with compound 48/80; known serotonin-antagonists; cited from earlier work
[2] = system: effects of serotonin in the gastric lesion test; test: Antagonistic activity on the effects of serotonin in the gastric lesion test (lesions induced by compound 48/80); format: in vivo, rat (male, Wistar inbred strain)
Text: The compounds of formula (I) and the pharmaceutically acceptable acid addition salts thereof are also potent serotonin-antagonists. The potency of the subject compounds as serotonin-antagonists is clearly evidenced by the results obtained in the following tests wherein the antagonistic activity of the subject compounds on the effect of serotonin is examined.
Antagonistic activity on the effects of serotonin in the gastric lesion test.
The shock, followed by dead, can be avoided if the rats are pretreated with a classical H 1 antagonist.
Male rats of a Wistar inbred strain, weighing 220-250 g, were starved overnight, water being available ad libitum. The test compounds were administered orally as a solution or as a suspension in aqueous medium. A control rat and a "blank" rat received the test compound. One hour later 5-[4-(diphenylmethyl)-1-piperazinylmethyl]-1-methyl-1H-benzimidazole-2-methanol was administered subcutaneously to all rats at the dose of 2.5 mg/kg.
Four hours after the intravenous injection of compound 48/80, the rats were decapitated and the stomachs were removed. Subsequently the stomachs were inspected for distension and contents (blood, fluid, food) and thoroughly rinsed. The macroscopic lesions were scored from 0 to +++, 0 corresponding to the complete absence of visible lesions and the highest score corresponding to reddish rough patches covering more than half the glandular area.

[3] = system: compound 48/80-induced lethality; test: Protection of rats from compound 48/80-induced lethality; format: in vivo, rat (male, inbred Wistar strain); conditions: subcutaneous or oral, 1 h before compound 48/80 0.5 mg/kg i.v., survival after 4 h; for ED50: Rattus norvegicus, 4 h, read-out: compound 48/80 lethality test in rats-ED50, dose protecting 50% of animals
Procedure: Protection of rats from compound 48/80-induced lethality.
The protection from compound 48/80-induced lethal circulatory collapse appears to be a simple way of evaluating quantitatively the antihistaminic activity of test compounds. Male rats of an inbred Wistar strain, weighing 240-260 g were used in the experiment. After overnight starvation the rats were transferred to conditioned laboratories (temp.=21±1° C., relative humidity=65±5%).
The rats were treated subcutaneously or orally with a test compound or with the solvent (NaCl solution, 0.9%). […] Survival after 4 hours is therefore considered to be a safe criterion of a protective effect of drug administration.
The ED50 -values of the compounds of formula (I) are listed in the first column of table 1. Said ED50 -values are the values in mg/kg body weight at which the tested compounds protect 50% of the tested animals against compound 48/80-induced lethality.

[4] = Rattus norvegicus, read-out: gastric lesion test ED50
[5] = Rattus norvegicus; read-out: gastric lesion test ED50

In the case of `CN1CCN2c3ccccc3Cc3ccccc3C2C1` (stereo not shown) [mianserin], the “prevention of cyanosis of ears and extremities, lesions in the glandular area of the stomach and abnormal gastric distension” value (“prevention” for short) [1] is given as “prevent completely”.
`Cc1csc(NCCN2CCC(Nc3nc4ccccc4n3Cc3ccc(F)cc3)CC2)n1` [Compound 85, 1-[(4-fluorophenyl)methyl]-N-[1-[2-[(4-methyl-2-thiazolyl)amino]ethyl]-4-piperidinyl]-1H-benzimidazol-2-amine] gave an ED50 [2, 4] of 0.04 mg/kg and an ED50 [3] of 0.08 mg/kg.
Work on `Cc1coc(NCCN2CCC(Nc3nc4ccccc4n3Cc3ccc(F)cc3)CC2)n1` [Compound 84, 1-[(4-fluorophenyl)methyl]-N-[1-[2-[(4-methyl-2-oxazolyl)amino]ethyl]-4-piperidinyl]-1H-benzimidazol-2-amine] yielded an ED50 [2, 5] of 0.63 mg/kg and an ED50 [3] of 0.16 mg/kg.
`c1coc(Cn2c(NC3CCN(CCNc4nccs4)CC3)nc3ccccc32)c1` [Compound 48, 1-(2-furanylmethyl)-N-[1-[2-(2-thiazolylamino)ethyl]-4-piperidinyl]-1H-benzimidazol-2-amine] gave an ED50 [2, 5] of 0.63 mg/kg and an ED50 [3] of 0.08 mg/kg.
For `Fc1ccc(Cn2c(NC3CCN(CCNc4nc(-c5ccncc5)cs4)CC3)nc3ccccc32)cc1` [Compound 86], the ED50 [2, 5] was 1.25 mg/kg and the ED50 [3] was 0.31 mg/kg.
Compound `CC(=O)N(CCN1CCC(Nc2nc3ccccc3n2Cc2ccc(F)cc2)CC1)c1nccs1` [Compound 102, N-[2-[4-[[1-[(4-fluorophenyl)methyl]-1H-benzimidazol-2-yl]-amino]-1-piperidinyl]ethyl]-N-(2-thiazolyl)acetamide] has an ED50 [2, 5] of 1.25 mg/kg and an ED50 [3] of 0.16 mg/kg.
In the case of `CN1CCC(=C2c3ccccc3C=Cc3ccccc32)CC1` [cyproheptadine], the “prevention” value [1] is given as “prevent completely”.
For `Fc1ccc(Cn2c(NC3CCN(CCNc4nccs4)CC3)nc3ccccc32)cc1` [Compound 58], the ED50 [2, 4] was 0.04 mg/kg and the “compound 48/80 lethality test in rats-ED50” value ([3]; dose protecting 50% of animals, 0.5 mg/kg, 240 min) was 0.02 mg/kg body weight.
Work on `Cn1ccnc1SCCN1CCC(Nc2nc3ccccc3n2Cc2ccc(F)cc2)CC1` [Compound 75, 1-[(4-fluorophenyl)methyl]-N-[1-[2-[(1-methyl-1H-imidazol-2-yl)thio]ethyl]-4-piperidinyl]-1H-benzimidazol-2-amine] yielded an ED50 [2, 4] of 0.08 mg/kg and an ED50 [3] of 0.08 mg/kg.
`Cc1nc[nH]c1CN1CCC(Nc2nc3ccccc3n2Cc2ccc(F)cc2)CC1` [Compound 7, 1-(4-fluorophenylmethyl)-N-[1-[(4-methyl-1H-imidazol-5-yl)methyl]-4-piperidinyl]-1H-benzimidazol-2-amine] showed an ED50 [2, 5] of 0.31 mg/kg and an ED50 [3] of 0.02 mg/kg.
In the case of `CC[C@@H](CO)NC(=O)[C@@H]1C=C2c3cccc4c3c(cn4C)C[C@H]2N(C)C1` [methysergide], the “prevention” value [1] is given as “prevent completely”.
In the case of `CN(C)CCCSc1ccccc1NC(=O)/C=C/c1ccccc1` [cinanserin], the “prevention” value [1] is given as “prevent completely”.
`O=C(c1ccccc1)N(CCN1CCC(Nc2nc3ccccc3n2Cc2ccc(F)cc2)CC1)c1nccs1` [Compound 100, N-[2-[4-[[1-[(4-fluorophenyl)methyl]-1H-benzimidazol-2-yl]amino]-1-piperidinyl]ethyl]-N-(2-thiazolyl)benzamide] gave an ED50 [2, 5] of 0.63 mg/kg and an ED50 [3] of 0.31 mg/kg.
In the case of `CN1C[C@H](CNC(=O)OCc2ccccc2)C[C@@H]2c3cccc4c3c(cn4C)C[C@H]21` [metergoline], the “prevention” value [1] is listed as “prevent completely”.
`c1ccc2c(c1)nc(NC1CCN(CCNc3nccs3)CC1)n2Cc1cscn1` [Compound 49, N-[1-[2-(2-thiazolylamino)ethyl]-4-piperidinyl]-1-(4-thiazolylmethyl)-1H-benzimidazol-2-amine ethanedioate (2:5)] gave an ED50 [2, 5] of 0.63 mg/kg and an ED50 [3] of 0.04 mg/kg.
For `Fc1ccc(Cn2c(NC3CCN(CCNc4ncc[nH]4)CC3)nc3ccccc32)cc1` [Compound 79, 1-[(4-fluorophenyl)methyl]-N-[1-[2-(1H-imidazol-2-ylamino)ethyl]-4-piperidinyl]-1H-benzimidazol-2-amine], the ED50 [2, 4] was 0.04 mg/kg and the ED50 [3] was 0.02 mg/kg.
With `N=C(N)Nc1nc(CCN2CCC(Nc3nc4ccccc4n3Cc3ccc(F)cc3)CC2)cs1` [Compound 90, N-[4-[2-[4-[[1-[(4-fluorophenyl)methyl]-1H-benzimidazol-2-yl]amino]-1-piperidinyl]ethyl-2-thiazolyl]guanidinetrihydrobromide] the ED50 [2, 5] was 0.31 mg/kg and the ED50 [3] was 0.04 mg/kg.
`Cc1sc(N)nc1CCN1CCC(Nc2nc3ccccc3n2Cc2ccc(F)cc2)CC1` [Compound 94, N-[1-[2-(2-amino-5-methyl-4-thiazolyl)ethyl]-4-piperidinyl]-1-[(4-fluorophenyl)methyl]-1H-benzimidazol-2-amine] gave an ED50 [2, 4] of 0.08 mg/kg and an ED50 [3] of 0.08 mg/kg.
In the case of `Fc1ccccc1Cn1c(NC2CCN(CCNc3nccs3)CC2)nc2ccccc21` [Compound 31], the ED50 [2, 5] was 0.63 mg/kg and the ED50 [3] was 0.08 mg/kg.
For `O=C(CCCN1CCC2(CC1)C(=O)NCN2c1ccccc1)c1ccc(F)cc1` [spiperone], the “prevention” value [1] is listed as “prevent completely”.
In the case of `CN1CCC(=C2c3ccccc3CCc3sccc32)CC1` [pizotifen], the “prevention” value [1] is given as “prevent completely”.
For `CNC(=O)N(CCN1CCC(Nc2nc3ccccc3n2Cc2ccc(F)cc2)CC1)c1nccs1` [Compound 103, N-[2-[4-[[1-[(4-fluorophenyl)methyl]-1H-benzimidazol-2-yl]amino]-1-piperidinyl]ethyl]-N'-methyl-N-(2-thiazolyl)urea], the ED50 [2, 5] was 0.63 mg/kg and the ED50 [3] was 0.08 mg/kg.
With `Clc1ccc(Cn2c(NC3CCN(CCNc4nccs4)CC3)nc3ccccc32)cc1` [Compound 25] the ED50 [2, 5] was 0.63 mg/kg and the ED50 [3] was 0.31 mg/kg.
With `c1csc(Cn2c(NC3CCN(CCNc4nccs4)CC3)nc3ccccc32)c1` [Compound 28] the ED50 [2, 5] was 0.02 mg/kg and the ED50 [3] was 0.08 mg/kg.
With `Cc1ccccc1Cn1c(NC2CCN(CCNc3nccs3)CC2)nc2ccccc21` [Compound 29] the ED50 [2, 5] was 0.63 mg/kg and the ED50 [3] was 0.63 mg/kg.
For `NC(=O)C1(N2CCCCC2)CCN(CCCC(=O)c2ccc(F)cc2)CC1` [pipamperone], the “prevention” value [1] is given as “prevent completely”.
With `Nc1nnc(NCCN2CCC(Nc3nc4ccccc4n3Cc3ccc(F)cc3)CC2)s1` [Compound 18] the ED50 [2, 4] was 0.04 mg/kg and the ED50 [3] was 0.02 mg/kg.
With `Fc1ccc(Cn2c(NC3CCN(CCNc4nc(-c5ccccn5)cs4)CC3)nc3ccccc32)cc1` [Compound 87] the ED50 [2, 5] was 0.63 mg/kg and the ED50 [3] was 0.31 mg/kg.
`Cc1nnc(NCCN2CCC(Nc3nc4ccccc4n3Cc3ccc(F)cc3)CC2)s1` [Compound 15, 1-[(4-fluorophenyl)methyl]-N-[1-[2-[(5-methyl-1,3,4-thiadiazol-2-yl)amino]ethyl]-4-piperidinyl]-1H-benzimidazol-2-amine] showed an ED50 [2, 5] of 0.31 mg/kg and an ED50 [3] of 0.04 mg/kg.
With `Fc1ccc(Cn2c(NC3CCN(CCCCCNc4nccs4)CC3)nc3ccccc32)cc1` [Compound 21] the ED50 [2, 5] was 0.31 mg/kg and the ED50 [3] was 0.16 mg/kg.
